Measurements taken from US20100086519A1, “Treatment of Hepatitis C Infection With Metalloporphyrins” (The Charlotte-Mecklenburg Hospital Authority d/b/a …, priority 2008, published 2010).
Where a SMILES comes first, the peptide text is derived from it. The star is where a group is joined. Cbz = O=C(OCc1ccccc1)*

Tests used:
HCV NS5A protein [1] = biological target: T1, HCV NS5A protein (Hepatitis C virus genotype 1b, UniProt Q9WMX2); experiment: NS5A protein levels by Western blot in 9-13 cells; format: cell-based; parameters: processed into structural (C, E1, E2) and nonstructural (NS2, NS3, NS4A, NS4B, NS5A and NS5B) proteins; expressed in transfected cells; host or cells: 9-13 cells (human hepatoma cells with a replicating HCV NS3-NS5B region); details: 9-13 cells; for NS5A protein levels, proteasome inhibitor alone: absence of ZnMP, FIG. 5C; for effect on degradation of NS5A by ZnMP 5 μM: epoxomicin 5, 10 μM or MG132 10, 20 μM 30 min before ZnMP 5 μM; for effect on degradation of NS5A by ZnMP 5 μM / effect on degradation of NS5A by ZnMP 10 μM / NS5A protein levels: 4 hours; for effect on degradation of NS5A by ZnMP 10 μM: epoxomicin 5, 10 μM or MG132 10, 20 μM 30 min before ZnMP 10 μM; for NS5A protein levels: 10 μM, FIG. 2A
From the text: Bartenschlager (University of Heidelberg, Heidelberg, Germany).
Biochim Biophys Acta 2008; 1779:195-203.

HCV = experiment: anti-viral activity (summary statement); format: cell-based, hepatitis C virus
HCV NS5A protein [2] = biological target: T1, HCV NS5A protein; experiment: polyubiquitination of NS5A by immunoprecipitation and immunoblot in 9-13 cells; format: cell-based; parameters: processed into structural (C, E1, E2) and nonstructural (NS2, NS3, NS4A, NS4B, NS5A and NS5B) proteins; expressed in transfected cells; host or cells: 9-13 cells (human hepatoma cells with a replicating HCV NS3-NS5B region)
Experimental: Immunoprecipitation was carried out according to the Manufacturer's protocol. Briefly, cells were harvested in cold radioimmunoprecipitation assay (RIPA) buffer (50 mM Tris-HC1 [pH 7.4], 150 mM NaCl, 1 mM EDTA, 0.25% sodium deoxycholate, 1% IGEPAL CA-630, 1 mM PMSF, 1 mM NaF, 1 mM Na3VO4 and 1 μg/ml each of aprotinin, leupeptin, and pepstatin). The samples were pre-cleared with Protein A/G Agarose for 10 min at 4° C. and subsequently incubated while gently rotating at 4° C. overnight with primary antibody, followed by Protein A/G beads for 1 h at 4° C. Beads were spun down and washed twice with RIPA buffer. Protein samples were separated by electrophoresis on 4-15% SDS-PAGE gels, and transferred to PVDF membrane, conjugated ubiquitin was detected as described for Western blot analysis using anti-ubiquitin antibody.
This Example investigates whether ZnMP induces polyubquitination of NS5A to gain insight into the mechanism by which ZnMP mediates degradation of NS5A protein. 9-13 cells were treated without or with 10 μM ZnMP for 4 h. Total proteins were extracted for subsequent Western blot or immunoprecipitation analysis. Immunoprecipitation was carried out using anti-HCV NS5A antibody. Ubiquitin conjugation of NS5A [polyubiquitinated NS5A (Ub)n-NS5A]was examined with immunoprecipitation using an anti-HCV NS5A antibody and immunoblot using an anti-ubiquitin antibody. […] In FIG. 6B, ubiquitination of NS5A following ZnMP treatment, or vehicle (DMSO) only was compared. The positions of molecular mass markers (in kilodaltons) are indicated to the left of the gel. The bracket indicates polyubiquitinated NS5A. Asterisks indicate cross-reacting immunoglobulin heavy chain. […] These bands may represent polyubiquitinated NS5A.

9-13 cells = experiment: growth of cells exposed to proteasome inhibitor; format: cell-based, human; details: 20 μM
Bach1 = biological target: T2, Bach1 (Mus musculus, UniProt P97302); details: NIH 3T3 cells; cited from earlier work
T2 construct: host or cells: NIH 3T3 cells
T2 sequence (P97302 1-739): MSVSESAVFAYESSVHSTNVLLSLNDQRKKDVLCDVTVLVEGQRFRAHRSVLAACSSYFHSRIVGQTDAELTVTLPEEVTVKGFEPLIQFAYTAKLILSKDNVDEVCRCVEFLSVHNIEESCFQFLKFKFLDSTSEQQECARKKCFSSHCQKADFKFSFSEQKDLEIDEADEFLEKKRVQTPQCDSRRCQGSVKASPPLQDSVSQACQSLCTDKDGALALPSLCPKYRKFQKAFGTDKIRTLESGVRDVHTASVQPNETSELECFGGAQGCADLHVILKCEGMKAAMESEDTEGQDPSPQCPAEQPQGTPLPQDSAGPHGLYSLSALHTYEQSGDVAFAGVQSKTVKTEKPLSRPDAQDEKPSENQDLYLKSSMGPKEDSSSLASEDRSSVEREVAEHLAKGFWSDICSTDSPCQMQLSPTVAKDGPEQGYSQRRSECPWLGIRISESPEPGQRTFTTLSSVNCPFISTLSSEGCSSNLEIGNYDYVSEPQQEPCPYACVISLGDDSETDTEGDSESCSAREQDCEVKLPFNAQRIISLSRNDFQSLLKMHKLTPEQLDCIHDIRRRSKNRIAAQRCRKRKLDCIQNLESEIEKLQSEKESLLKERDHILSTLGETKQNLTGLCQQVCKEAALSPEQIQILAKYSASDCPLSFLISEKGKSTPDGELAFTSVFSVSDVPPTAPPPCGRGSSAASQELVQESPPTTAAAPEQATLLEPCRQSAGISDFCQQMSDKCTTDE

HO-1 gene = details: NIH 3T3 cells; cited from earlier work

T1 sequence (Q9WMX2 1973-2419): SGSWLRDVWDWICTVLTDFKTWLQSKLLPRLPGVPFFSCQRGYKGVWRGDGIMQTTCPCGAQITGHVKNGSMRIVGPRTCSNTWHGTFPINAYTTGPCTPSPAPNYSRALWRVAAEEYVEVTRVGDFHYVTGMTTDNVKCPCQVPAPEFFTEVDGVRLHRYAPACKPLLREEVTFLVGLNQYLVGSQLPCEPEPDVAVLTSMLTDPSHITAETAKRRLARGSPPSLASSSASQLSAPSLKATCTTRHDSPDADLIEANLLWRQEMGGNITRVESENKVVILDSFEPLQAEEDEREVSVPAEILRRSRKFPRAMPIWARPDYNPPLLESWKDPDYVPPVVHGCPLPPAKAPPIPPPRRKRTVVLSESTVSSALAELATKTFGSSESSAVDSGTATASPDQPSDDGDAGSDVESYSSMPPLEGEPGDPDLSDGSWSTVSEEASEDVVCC

## CC(C)C[C@@H](C=O)NC(=O)[C@H](CC(C)C)NC(=O)[C@H](CC(C)C)NC(=O)OCc1ccccc1 [MG132] (Cbz-Leu-Leu-Leu-aldehyde)
HCV NS5A protein [1]
  NS5A protein levels, proteasome inhibitor alone: did not affect
  effect on degradation of NS5A by ZnMP 5 μM: completely abrogated
  effect on degradation of NS5A by ZnMP 10 μM: significant reversal

## c1ccc(CN(CCN(Cc2ccccn2)Cc2ccccn2)Cc2ccccn2)nc1 [TEPN, N, N, N, N-tetrakis-(2-pyridylmethyl) ethylenediamine]
HCV NS5A protein [1]; chelator 30 min before ZnMP, then 4 h, FIG. 3
  effect on ZnMP-mediated down-regulation of NS5A protein levels: did not affect

## [Cl-].[Cl-].[Zn+2] [ZnCl2, zinc chloride]
HCV NS5A protein [1]
  NS5A protein levels: not affected

## C=CC1=C(C)c2cc3[n-]c(cc4nc(cc5[n-]c(cc1n2)c(C)c5C=C)C(C)=C4CCC(=O)O)c(CCC(=O)O)c3C.[Zn+2] [ZnPP, Zinc protoporphyrin]
HCV
  anti-viral activity (summary statement): display anti-viral activity
HCV NS5A protein [2]
  polyubquitination of NS5A (summary statement): induce polyubquitination

## CC[C@H](C)[C@H](NC(=O)[C@H]([C@@H](C)CC)N(C)C(C)=O)C(=O)N[C@H](C(=O)N[C@@H](CC(C)C)C(=O)[C@@]1(C)CO1)[C@@H](C)O [epoxomicin]
9-13 cells
  toxicity to the cells (cell growth): toxic
HCV NS5A protein [1]
  NS5A protein levels, proteasome inhibitor alone: did not affect
  effect on degradation of NS5A by ZnMP 5 μM: completely abrogated
  effect on degradation of NS5A by ZnMP 10 μM: significant reversal

## Tin mesoporphyrin [SnMP]
Bach1
  Bach1 protein levels: down-regulate
HO-1 gene
  HO-1 gene expression: induce
HCV NS5A protein [1]; 10 μM, 0, 2, 4, 6 h, FIG. 2B
  NS5A protein levels, time course: no detectable effects

## mesoporphyrin
HCV NS5A protein [1]
  NS5A protein levels: not affected
